These results are taken from US9452225B2, “GLP-1 prodrugs” (Novo Nordisk A/S, priority 2012, dated 2016).

The series can be described thus: Prodrug half-life in vitro, buffer method. Format: physicochemical. The procedure:
The purpose of this example is to test the in vitro half-lives (T½) of the GLP-1 prodrugs of the invention, in comparison to conceptually different prodrugs. In what follows two in vitro methods are described, viz. a method conducted in buffer, and a method conducted in plasma.
Buffer: 25 mM Phosphate (Ionic strength: 154 mM, pH 7.4 at 37° C.)
NaH2PO4.2H2O (1.95 g, 12.5 mmol) and NaCl (2.61 g, 44.7 mmol) were dissolved in millipore water (approximately 450 mL) and adjusted to pH=7.44 at approximately 20° C. with concentrated NaOH and 1 M NaOH. Water was added to 500.00 mL.
The compound to be tested was dissolved in buffer to a concentration of 1.0 mg/mL and incubated at 37° C. Samples were taken at adequate intervals and the % parent drug compared to prodrug formed as function of time was evaluated by the UPLC method as referred to in Table 1 by comparing the areas under the curves for the two corresponding peaks. These UPLC methods are described in the general experimental section above (UPLC_A, and UPLC_B).
The half life of the prodrug (T½) was calculated from the slope of a linear fit to the curve of ln(% prodrug (Y)) as a function of time (t), as follows: Y=÷αt+k Math. 1 T½=ln(2)/α Math. 2 Plasma Method Buffer: 200 mM Phosphate, pH 7.4 at 37° C.
The resulting half-lives are set out in Table 1 below. For comparison, the T½ in buffer of native GLP-1(7-37) (His7 variant of SEQ ID NO: 1) was 13 minutes (0.2 hours).

Where [1] appears, read: 25 mM phosphate buffer pH 7.4, 37° C., 1.0 mg/mL, UPLC_A, or UPLC_B for compounds marked *, read-out: T½ in buffer (converted).

The structures appear in SMILES notation. Like-named read-outs stand apart in the source and are kept apart here. Numbered stars: 1 amine (or outer) side, 2 acyl side, 3 side chain; on linkers, the order of the positions; unused ones are H or OH. Square brackets hold non-standard residues; d marks the D form. Side chains are listed from the residue outwards. Peptide text beside a SMILES is read from it. * marks the point of attachment. Decanoyl(10-(4-HOOC-PhO)) = O=C(O)c1ccc(OCCCCCCCCCC(=O)*)cc1; Lac(3-(imidazol-4-yl)) = O=C(O)[C@@H](O)Cc1c[nH]cn1; C18 diacid = O=C(O)CCCCCCCCCCCCCCCCC(=O)*; γGlu = O=C(O)[C@H](CCC(=O)[*:2])N[*:1]; NMeI = CC[C@H](C)[C@H](NC)C(=O)O; AEEA = NCCOCCOCC(=O)O; Aib = CC(C)(N)C(=O)O; Glycolyl = O=C(CO)*

Regarding `CC[C@H](C)[C@H](NC)C(=O)N[C@H](C(=O)O[C@@H](Cc1c[nH]cn1)C(=O)NC(C)(C)C(=O)N[C@@H](CCC(=O)O)C(=O)NCC(=O)N[C@H](C(=O)N[C@@H](Cc1ccccc1)C(=O)N[C@H](C(=O)N[C@@H](CO)C(=O)N[C@@H](CC(=O)O)C(=O)N[C@H](C(=O)N[C@@H](CO)C(=O)N[C@@H](CO)C(=O)N[C@@H](Cc1ccc(O)cc1)C(=O)N[C@@H](CC(C)C)C(=O)N[C@@H](CCC(=O)O)C(=O)N[C@@H](CCC(=O)O)C(=O)N[C@@H](CCC(N)=O)C(=O)N[C@@H](C)C(=O)N[C@@H](C)C(=O)N[C@@H](CCCNC(=N)N)C(=O)N[C@@H](CCCCNC(=O)COCCOCCNC(=O)COCCOCCNC(=O)CC[C@H](NC(=O)CCCCCCCCCCCCCCCCC(=O)O)C(=O)O)C(=O)N[C@@H](Cc1ccccc1)C(=O)N[C@H](C(=O)N[C@@H](C)C(=O)N[C@@H](Cc1c[nH]c2ccccc12)C(=O)N[C@@H](CC(C)C)C(=O)N[C@H](C(=O)N[C@@H](CCCNC(=N)N)C(=O)NCC(=O)N[C@@H](CCCNC(=N)N)C(=O)NCC(=O)O)C(C)C)[C@@H](C)CC)C(C)C)[C@@H](C)O)[C@@H](C)O)C(C)C` [Example 6] (H-[NMeI]V[Lac(3-(imidazol-4-yl))][Aib]EGTFTSDVSSYLEEQAARK([AEEA-AEEA-γGlu-C18 diacid])FIAWLVRGRG-OH), where the note is “buffer, pH 7.4”, the half-life at 1 mg/mL is 45.6 h. With `CC[C@H](C)[C@H](N)C(=O)N[C@H](C(=O)O[C@@H](Cc1c[nH]cn1)C(=O)NC(C)(C)C(=O)N[C@@H](CCC(=O)O)C(=O)NCC(=O)N[C@H](C(=O)N[C@@H](Cc1ccccc1)C(=O)N[C@H](C(=O)N[C@@H](CO)C(=O)N[C@@H](CC(=O)O)C(=O)N[C@H](C(=O)N[C@@H](CO)C(=O)N[C@@H](CO)C(=O)N[C@@H](Cc1ccc(O)cc1)C(=O)N[C@@H](CC(C)C)C(=O)N[C@@H](CCC(=O)O)C(=O)N[C@@H](CCC(=O)O)C(=O)N[C@@H](CCC(N)=O)C(=O)N[C@@H](C)C(=O)N[C@@H](C)C(=O)N[C@@H](CCCNC(=N)N)C(=O)N[C@@H](CCCCNC(=O)COCCOCCNC(=O)COCCOCCNC(=O)CC[C@H](NC(=O)CCCCCCCCCCCCCCCCC(=O)O)C(=O)O)C(=O)N[C@@H](Cc1ccccc1)C(=O)N[C@H](C(=O)N[C@@H](C)C(=O)N[C@@H](Cc1c[nH]c2ccccc12)C(=O)N[C@@H](CC(C)C)C(=O)N[C@H](C(=O)N[C@@H](CCCNC(=N)N)C(=O)NCC(=O)N[C@@H](CCCNC(=N)N)C(=O)NCC(=O)O)C(C)C)[C@@H](C)CC)C(C)C)[C@@H](C)O)[C@@H](C)O)C(C)C` [Example 6a] (H-IV[Lac(3-(imidazol-4-yl))][Aib]EGTFTSDVSSYLEEQAARK([AEEA-AEEA-γGlu-C18 diacid])FIAWLVRGRG-OH), the half-life at 1 mg/mL (buffer, pH 7.4) is 11 h.

Take `CC[C@H](C)[C@H](NC(=O)[C@H](Cc1ccccc1)NC(=O)[C@H](CCC(=O)O)NC(=O)[C@H](CCCNC(=N)N)NC(=O)[C@@H](NC(=O)[C@H](C)NC(=O)[C@H](CCC(N)=O)NC(=O)[C@H](CCC(=O)O)NC(=O)[C@H](CCC(=O)O)NC(=O)[C@H](CC(C)C)NC(=O)[C@H](Cc1ccc(O)cc1)NC(=O)[C@H](CCCCNC(=O)COCCOCCNC(=O)COCCOCCNC(=O)CC[C@H](NC(=O)CCCCCCCCCOc1ccc(C(=O)O)cc1)C(=O)O)NC(=O)[C@H](CO)NC(=O)[C@@H](NC(=O)[C@H](CC(=O)O)NC(=O)[C@H](CO)NC(=O)[C@@H](NC(=O)[C@H](Cc1ccccc1)NC(=O)[C@@H](NC(=O)CNC(=O)[C@H](CCC(=O)O)NC(=O)[C@H](C)NC(=O)[C@H](Cc1c[nH]cn1)OC(=O)[C@@H](NC(=O)CO)C(C)C)[C@@H](C)O)[C@@H](C)O)C(C)C)C(C)C)C(=O)N[C@@H](C)C(=O)N[C@@H](CCCCNC(=O)COCCOCCNC(=O)COCCOCCNC(=O)CC[C@H](NC(=O)CCCCCCCCCOc1ccc(C(=O)O)cc1)C(=O)O)C(=O)N[C@@H](CC(C)C)C(=O)N[C@H](C(=O)N[C@@H](CCCNC(=N)N)C(=O)NCC(=O)N[C@@H](CCCNC(=N)N)C(=O)NCC(=O)O)C(C)C` [Example 1b] (Glycolyl-V[Lac(3-(imidazol-4-yl))]AEGTFTSDVSK([AEEA-AEEA-γGlu-Decanoyl(10-(4-HOOC-PhO))])YLEEQAVREFIAK([AEEA-AEEA-γGlu-Decanoyl(10-(4-HOOC-PhO))])LVRGRG-OH): the half-life at 1 mg/mL under setting [1] is 0.65 h.

As for `CC[C@H](C)[C@H](NC(=O)[C@H](Cc1ccccc1)NC(=O)[C@H](CCC(=O)O)NC(=O)[C@H](CCCNC(=N)N)NC(=O)[C@@H](NC(=O)[C@H](C)NC(=O)[C@H](CCC(N)=O)NC(=O)[C@H](CCC(=O)O)NC(=O)[C@H](CCC(=O)O)NC(=O)[C@H](CC(C)C)NC(=O)[C@H](Cc1ccc(O)cc1)NC(=O)[C@H](CCCCNC(=O)COCCOCCNC(=O)COCCOCCNC(=O)CC[C@H](NC(=O)CCCCCCCCCOc1ccc(C(=O)O)cc1)C(=O)O)NC(=O)[C@H](CO)NC(=O)[C@@H](NC(=O)[C@H](CC(=O)O)NC(=O)[C@H](CO)NC(=O)[C@@H](NC(=O)[C@H](Cc1ccccc1)NC(=O)[C@@H](NC(=O)CNC(=O)[C@H](CCC(=O)O)NC(=O)[C@H](C)NC(=O)[C@H](Cc1c[nH]cn1)OC(=O)[C@@H](NC(=O)CN)C(C)C)[C@@H](C)O)[C@@H](C)O)C(C)C)C(C)C)C(=O)N[C@@H](C)C(=O)N[C@@H](CCCCNC(=O)COCCOCCNC(=O)COCCOCCNC(=O)CC[C@H](NC(=O)CCCCCCCCCOc1ccc(C(=O)O)cc1)C(=O)O)C(=O)N[C@@H](CC(C)C)C(=O)N[C@H](C(=O)N[C@@H](CCCNC(=N)N)C(=O)NCC(=O)N[C@@H](CCCNC(=N)N)C(=O)NCC(=O)O)C(C)C` [Example 1a] (H-GV[Lac(3-(imidazol-4-yl))]AEGTFTSDVSK([AEEA-AEEA-γGlu-Decanoyl(10-(4-HOOC-PhO))])YLEEQAVREFIAK([AEEA-AEEA-γGlu-Decanoyl(10-(4-HOOC-PhO))])LVRGRG-OH), the half-life at 1 mg/mL under setting [1] is 1.5 h.
